Test results taken from the supplement of paper PMC11061612.

Key:
Experiment in all cases: Bliss excess, mean over the matrix (fraction); higher = more synergy
[1] = tested on: GR-ST (B-Lymphoblastic Leukemia)
Summary of the method: (§1)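 Bliss excess equals the observed combination effect minus the expected value EA + EB − EA·EB, where EA and EB are the effects of each agent alone. Combination Emax is the second-highest inhibition within the matrix. Inhibition was scaled from CellTiter-Glo 2.0 luminescence, with 0 set by vehicle wells and 1 by blank wells, after 72 hours of two-drug dosing of cells plated in 1536-well plates.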

[2] = tested on: DND-41 (T-Lymphoblastic Leukemia)
Summary of the method: as §1

[3] = tested on: KARPAS-45 (T-Lymphoblastic Leukemia)
Summary of the method: as §1

[4] = tested on: BFTC-905 (Bladder Carcinoma)
Summary of the method: as §1

[5] = tested on: MKN28 (Gastric Carcinoma)
Summary of the method: as §1

[6] = tested on: TC-71 (Ewing's Sarcoma)
Summary of the method: as §1

[7] = tested on: SW837 (Colorectal Carcinoma)
Summary of the method: as §1

[8] = tested on: HDQ-P1 (Breast Carcinoma)
Summary of the method: as §1

[9] = tested on: CAMA-1 (Breast Carcinoma)
Summary of the method: as §1

[10] = tested on: NCI-H1792 (Lung Adenocarcinoma)
Summary of the method: as §1

[11] = tested on: WIL2-NS (Non-Cancerous)
Summary of the method: as §1

[12] = tested on: TE-6 (Esophageal Squamous Cell Carcinoma)
Summary of the method: as §1

[13] = tested on: KM12 (Colorectal Carcinoma)
Summary of the method: as §1

[14] = tested on: TOV-112D (Ovarian Carcinoma)
Summary of the method: as §1

[15] = tested on: EVSA-T (Breast Carcinoma)
Summary of the method: as §1

[16] = tested on: SW1417 (Colorectal Carcinoma)
Summary of the method: as §1

[17] = tested on: L-540 (Hodgkin's Lymphoma)
Summary of the method: as §1

[18] = tested on: K-562 (Chronic Myelogenous Leukemia)
Summary of the method: as §1

[19] = tested on: MEL-JUSO (Melanoma)
Summary of the method: as §1

[20] = tested on: NCI-H847 (Small Cell Lung Carcinoma)
Summary of the method: as §1

Structure (SMILES): Cc1c2c(nn1C)CSCc1cc(n(C)n1)CSc1cc(c3ccccc3c1)OCCCc1c(C(=O)O)n(C)c3c-2c(Cl)ccc13 [AZD5991] + C=CCn1c(=O)c2cnc(Nc3ccc(N4CCN(C)CC4)cc3)nc2n1-c1cccc(C(C)(C)O)n1 [AZD1775] (first compound max 1 µM, partner max 1 µM)
- Bliss excess [1]: -0.0402
- Bliss excess [2]: -0.0375
- Bliss excess [3]: -0.0189
- Bliss excess [4]: -0.0212
- Bliss excess [5]: -0.0227
- Bliss excess [6]: 0.0478
- Bliss excess [7]: 0
- Bliss excess [8]: -0.0575
- Bliss excess [9]: -0.0092
- Bliss excess [10]: -0.0453
- Bliss excess [11]: 0
- Bliss excess [12]: 0.0135
- Bliss excess [13]: 0.0031
- Bliss excess [14]: -0.017
- Bliss excess [15]: 0.0165
- Bliss excess [16]: -0.0548
- Bliss excess [17]: -0.0127
- Bliss excess [18]: 0.0092
- Bliss excess [19]: -0.0033
- Bliss excess [20]: -0.0445

Structure (SMILES): CN(CCO)CC[C@H](CSc1ccccc1)Nc1ccc(S(=O)(=O)NC(=O)c2ccc(N3CCC([C@@H](O)c4ccccc4-c4ccc(Cl)cc4)CC3)cc2)cc1S(=O)(=O)C(F)(F)F [AZD4320] + C1CN(CCC1(C(=O)N[C@@H](CCO)C2=CC=C(C=C2)Cl)N)C3=NC=NC4=C3C=CN4 [Capivasertib] (first compound max 1 µM, 7x7, partner max 3 µM)
- Bliss excess [1]: 0.0039
- Bliss excess [2]: -0.0205
- Bliss excess [3]: 0.0265
- Bliss excess [4]: -0.0552
- Bliss excess [5]: -0.0404
- Bliss excess [6]: -0.0699
- Bliss excess [7]: -0.0453
- Bliss excess [8]: 0.0119
- Bliss excess [9]: -0.0365
- Bliss excess [10]: -0.0643
- Bliss excess [11]: 0.0219
- Bliss excess [12]: 0.0377
- Bliss excess [13]: -0.0572
- Bliss excess [14]: -0.0183
- Bliss excess [15]: -0.0161
- Bliss excess [16]: -0.0671
- Bliss excess [17]: -0.0075
- Bliss excess [18]: -0.0155
- Bliss excess [19]: -0.0472
- Bliss excess [20]: 0.0226

Structure (SMILES): COc1cc2c(cc1OCCCCCOc1cc3c(cc1OC)C(=O)N1C=C(C)C[C@H]1C=N3)N=C[C@@H]1CC(C)=CN1C2=O [SG3199] + O=C(c1cc(Cc2n[nH]c(=O)c3ccccc23)ccc1F)N1CCN(C(=O)C2CC2)CC1 [Olaparib] (first compound max 0.001 µM, 7x7, partner max 10 µM)
- Bliss excess [1]: -0.0339
- Bliss excess [2]: -0.0067
- Bliss excess [3]: -0.0076
- Bliss excess [4]: -0.054
- Bliss excess [5]: -0.0469
- Bliss excess [6]: -0.0224
- Bliss excess [7]: -0.0384
- Bliss excess [8]: -0.035
- Bliss excess [9]: -0.0443
- Bliss excess [10]: -0.0479
- Bliss excess [11]: -0.0239
- Bliss excess [12]: -0.0256
- Bliss excess [13]: -0.0301
- Bliss excess [14]: -0.0167
- Bliss excess [15]: -0.0094
- Bliss excess [16]: -0.0472
- Bliss excess [17]: -0.0272
- Bliss excess [18]: -0.0041
- Bliss excess [19]: -0.024
- Bliss excess [20]: -0.0375

Structure (SMILES): CC1(C)CCC(CN2CCN(c3ccc(C(=O)NS(=O)(=O)c4ccc(NCC5CCOCC5)c([N+](=O)[O-])c4)c(Oc4cnc5[nH]ccc5c4)c3)CC2)=C(c2ccc(Cl)cc2)C1 [Venetoclax] + CCN(CCO)CCCOc1ccc2c(Nc3cc(CC(=O)Nc4cccc(F)c4)[nH]n3)ncnc2c1 [AZD2811] (first compound max 1 µM, 7x7, partner max 1 µM)
- Bliss excess [1]: -0.0505
- Bliss excess [2]: 0.0178
- Bliss excess [3]: -0.0373
- Bliss excess [4]: -0.01
- Bliss excess [5]: -0.0257
- Bliss excess [6]: 0.0227
- Bliss excess [7]: 0.0166
- Bliss excess [8]: 0.0063
- Bliss excess [9]: -0.0198
- Bliss excess [10]: 0.0122
- Bliss excess [11]: 0.0275
- Bliss excess [12]: -0.0112
- Bliss excess [13]: 0.0148
- Bliss excess [14]: -0.0053
- Bliss excess [15]: 0.0485
- Bliss excess [16]: -0.0567
- Bliss excess [17]: 0.0086
- Bliss excess [18]: -0.0236
- Bliss excess [19]: -0.0165
- Bliss excess [20]: 0.112

Structure (SMILES): Cc1c2c(nn1C)CSCc1cc(n(C)n1)CSc1cc(c3ccccc3c1)OCCCc1c(C(=O)O)n(C)c3c-2c(Cl)ccc13 [AZD5991] + C[C@@H](Nc1cc(F)cc(F)c1)c1cc(C(=O)N(C)C)cc2c(=O)cc(N3CCOCC3)oc12 [AZD8186] (first compound max 1 µM, 7x7, partner max 3 µM)
- Bliss excess [1]: -0.0352
- Bliss excess [2]: -0.0249
- Bliss excess [3]: 0.0206
- Bliss excess [4]: -0.012
- Bliss excess [5]: -0.0326
- Bliss excess [6]: 0.0276
- Bliss excess [7]: -0.0156
- Bliss excess [8]: -0.0209
- Bliss excess [9]: 0.0868
- Bliss excess [10]: -0.0108
- Bliss excess [11]: -0.0749
- Bliss excess [12]: -0.0515
- Bliss excess [13]: 0.0121
- Bliss excess [14]: -0.0028
- Bliss excess [15]: 0.0412
- Bliss excess [16]: -0.0342
- Bliss excess [17]: -0.0224
- Bliss excess [18]: 0.0096
- Bliss excess [19]: 0.0086
- Bliss excess [20]: 0.0632

Structure (SMILES): CC1(C)CCC(CN2CCN(c3ccc(C(=O)NS(=O)(=O)c4ccc(NCC5CCOCC5)c([N+](=O)[O-])c4)c(Oc4cnc5[nH]ccc5c4)c3)CC2)=C(c2ccc(Cl)cc2)C1 [Venetoclax] + Cc1cc2ncnn2cc1Nc1ncc2c(n1)n(C1CCOCC1)c(=O)n2C [AZD7648] (first compound max 1 µM, 7x7, partner max 10 µM)
- Bliss excess [1]: -0.0513
- Bliss excess [2]: -0.0221
- Bliss excess [3]: 0.0482
- Bliss excess [4]: -0.0081
- Bliss excess [5]: -0.011
- Bliss excess [6]: -0.0333
- Bliss excess [7]: -0.0563
- Bliss excess [8]: -0.0288
- Bliss excess [9]: -0.0266
- Bliss excess [10]: -0.0591
- Bliss excess [11]: -0.0684
- Bliss excess [12]: -0.0041
- Bliss excess [13]: -0.0129
- Bliss excess [14]: -0.0253
- Bliss excess [15]: -0.0394
- Bliss excess [16]: -0.0705
- Bliss excess [17]: 0.0588
- Bliss excess [18]: -0.0011
- Bliss excess [19]: -0.0235
- Bliss excess [20]: 0.0002

Structure (SMILES): CN(C)CCCOc1ccc(-c2ccc3ncc4c(c3c2)n(C2CCOCC2)c(=O)n4C)cn1 [AZD0156] + O=C(c1cc(Cc2n[nH]c(=O)c3ccccc23)ccc1F)N1CCN(C(=O)C2CC2)CC1 [Olaparib] (first compound max 3 µM, partner max 3 µM)
- Bliss excess [1]: 0.131
- Bliss excess [2]: 0.0867
- Bliss excess [3]: 0.0456
- Bliss excess [4]: 0.175
- Bliss excess [5]: -0.0432
- Bliss excess [6]: 0.3
- Bliss excess [7]: 0.0159
- Bliss excess [8]: -0.0859
- Bliss excess [9]: 0.0457
- Bliss excess [10]: 0.0848
- Bliss excess [11]: 0.215
- Bliss excess [12]: 0.0029
- Bliss excess [13]: 0.121
- Bliss excess [14]: 0.0851
- Bliss excess [15]: 0.092
- Bliss excess [16]: -0.0287
- Bliss excess [17]: 0.0746
- Bliss excess [18]: 0.0271
- Bliss excess [19]: -0.0387
- Bliss excess [20]: 0.227
